Test results published in patent US20230203554A1, “PROCESS FOR REDUCING UNWANTED CULTURE BYPRODUCTS IN CELL CULTURE MEDIUM” (SAMSUNG BIOEPIS CO., LTD., priority 2016, published 2023).

Experiments:
[1] = tested on: Chinese hamster ovary (CHO) cells; conditions: 8 mM ammonia; cited from earlier work
CHO cells [2] = experiment: Cell viability, Trypan blue exclusion method (Cedex HiRes), Examples 3 and 4; assay type: cell-based, Chinese hamster; conditions: for cell viability: 14 days after the culture
Experimental: (§1) Cells were prepared using the same method as that used in Example 1, and a glutamine-free and 2×HT-containing medium was added to the prepared cells. 4 mM of uridine (catalog No.: U3003, Sigma) or 8 mM of galactose (Catalog No.: G0750, Sigma) was added to the medium. The cells were cultured at 37° C. and 5% CO2, and the medium was replaced with a fresh medium every two days. Cells cultured in a glutamine-free medium were used as a negative control.
(§2) After about 14 days, viable cell density and cell viability were measured using a Cedex HiRes analyzer (Model No.: 05650216001, Roche) through a scanner-based imaging method and a Trypan blue exclusion method. The viable cell density (CHO cells/ml) of cells cultured in the presence of uridine and in the presence of galactose is illustrated in FIGS. 5A and 5B, respectively. In addition, the cell viability (%) of cells cultured in the presence of uridine and in the presence of galactose is illustrated in FIGS. 6A and 6B, respectively.
as §1, with “1” for “4”, “magnesium” for “uridine (catalog No.: U3003, Sigma) or 8 mM of galactose”, “M4880,” for “G0750,”
After about 14 days, viable cell density and cell viability were measured using a Cedex HiRes analyzer (Model No.: 05650216001, Roche) through a scanner-based imaging method and a Trypan blue exclusion method, respectively. The viable cell density (CHO cells/ml) and cell viability of the cells cultured in the presence of magnesium are illustrated in FIGS. 7 and 8, respectively.

CHO cells [3] = experiment: Viable cell density, scanner-based imaging (Cedex HiRes), Examples 3 and 4; parameters: species or system Chinese hamster; conditions: 8 mM galactose added to glutamine-free 2×HT medium; FIG. 5B
Experimental: as §1, §2
Cells were prepared using the same method as that used in Example 1, and a glutamine-free and 2×HT-containing medium was added to the prepared cells. […]
After about 14 days, viable cell density and cell viability were measured using a Cedex HiRes analyzer (Model No.: 05650216001, Roche) through a scanner-based imaging method and a Trypan blue exclusion method, respectively. […]

N [ammonia]
inhibition of cell growth [1]: 50%

O=C[C@H](O)[C@@H](O)[C@@H](O)[C@H](O)CO [galactose, reference compound]
cell viability (printed: viable cell density), versus medium without galactose (CHO cells [2]; 8 mM galactose added to glutamine-free 2×HT medium, FIG. 6B): no significant difference
viable cell density, versus medium without galactose (CHO cells [3]): no significant difference

[Mg+2] [magnesium]
cell viability (CHO cells [2]; 1 mM magnesium added to glutamine-free 2×HT medium): 91.5%

O=c1ccn([C@@H]2O[C@H](CO)[C@@H](O)[C@H]2O)c(=O)[nH]1 [uridine]
cell viability (CHO cells [2]; 4 mM uridine added to glutamine-free 2×HT medium): 94.6%
